Reference: patent US11821005B2, “Umbilical cord mesenchymal stem cells (MSCs) and culture method and application thereof” (FOSHAN JINGZHUN JIEN HEALTH MANAGEMENT CONSULTING CO., LTD., priority 2019, dated 2023)
Structures can show the parent of a compound that is named as a salt.

Test system: umbilical cord MSCs (P3-P5 cells)
Assay: agglomeration of cultured MSCs after adding ligustrazine hydrochloride and/or Shenmai injection (cell graphs)
Assay type: cell-based, human
Settings: Day 1 after addition, ligustrazine hydrochloride 40-80 mg/L, Shenmai injection 0.5% by volume, FIG. 1 to FIG. 9
Method: 2.9 A ligustrazine hydrochloride (GYZZ H20041175 injection of Harbin Medisan Pharmaceutical Co., Ltd., which follows the Second Supplement to the National Standard and can be directly injected into human bodies) and a Shenmai injection (GYZZ Z63021721 of Yunnan Phytopharmaceutical Co., Ltd., which follows the National Drug Standard (Amendment) WS3-B-3428-98-2010 and can be directly injected into human bodies) were added to P3-P5 cells respectively. The concentration of the ligustrazine hydrochloride was 40-80 mg/L and the Shenmai injection was 0.5% by volume. After culture for 24 hours, change the medium and culture for another one week, the cells grown to a fusion degree of 80-90% were collected and digested for tests. The products obtained in the steps are biodetected to eliminate etiological contamination.
The cells were divided into three groups: a. only the Shenmai injection was added; b. only the ligustrazine hydrochloride was added; and c. both the Shenmai injection and the ligustrazine hydrochloride were added for comparison.

Cc1nc(C)c(C)nc1C [ligustrazine hydrochloride]
agglomeration of the cells: improved to some extent
